From patent US20250353864A1, “INDAZOLE CONTAINING MACROCYCLES AND THEIR USE” (BLOSSOMHILL THERAPEUTICS, INC., priority 2022, published 2025) come the findings set out here.

A value given as a limit tells only on which side of the number the result lay.

Format in all cases: biochemical
The target of one experiment is EGFR WT (Homo sapiens (Human), UniProt P00533). Kind of experiment: HotSpot radiometric kinase assay (Reaction Biology), EGFR WT. As to conditions: 10 μM ATP. In short, it runs like this: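 IC50 values come from curve fits of ^33P incorporation captured on P81 filters after acid washing. Kinase reactions ran 120 min at room temperature with 10 μM ATP, added about 20 min after compound. Buffer was Hepes pH 7.5 containing Mg, DTT and 1% DMSO.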
Chain of EGFR WT (P00533 25-1210): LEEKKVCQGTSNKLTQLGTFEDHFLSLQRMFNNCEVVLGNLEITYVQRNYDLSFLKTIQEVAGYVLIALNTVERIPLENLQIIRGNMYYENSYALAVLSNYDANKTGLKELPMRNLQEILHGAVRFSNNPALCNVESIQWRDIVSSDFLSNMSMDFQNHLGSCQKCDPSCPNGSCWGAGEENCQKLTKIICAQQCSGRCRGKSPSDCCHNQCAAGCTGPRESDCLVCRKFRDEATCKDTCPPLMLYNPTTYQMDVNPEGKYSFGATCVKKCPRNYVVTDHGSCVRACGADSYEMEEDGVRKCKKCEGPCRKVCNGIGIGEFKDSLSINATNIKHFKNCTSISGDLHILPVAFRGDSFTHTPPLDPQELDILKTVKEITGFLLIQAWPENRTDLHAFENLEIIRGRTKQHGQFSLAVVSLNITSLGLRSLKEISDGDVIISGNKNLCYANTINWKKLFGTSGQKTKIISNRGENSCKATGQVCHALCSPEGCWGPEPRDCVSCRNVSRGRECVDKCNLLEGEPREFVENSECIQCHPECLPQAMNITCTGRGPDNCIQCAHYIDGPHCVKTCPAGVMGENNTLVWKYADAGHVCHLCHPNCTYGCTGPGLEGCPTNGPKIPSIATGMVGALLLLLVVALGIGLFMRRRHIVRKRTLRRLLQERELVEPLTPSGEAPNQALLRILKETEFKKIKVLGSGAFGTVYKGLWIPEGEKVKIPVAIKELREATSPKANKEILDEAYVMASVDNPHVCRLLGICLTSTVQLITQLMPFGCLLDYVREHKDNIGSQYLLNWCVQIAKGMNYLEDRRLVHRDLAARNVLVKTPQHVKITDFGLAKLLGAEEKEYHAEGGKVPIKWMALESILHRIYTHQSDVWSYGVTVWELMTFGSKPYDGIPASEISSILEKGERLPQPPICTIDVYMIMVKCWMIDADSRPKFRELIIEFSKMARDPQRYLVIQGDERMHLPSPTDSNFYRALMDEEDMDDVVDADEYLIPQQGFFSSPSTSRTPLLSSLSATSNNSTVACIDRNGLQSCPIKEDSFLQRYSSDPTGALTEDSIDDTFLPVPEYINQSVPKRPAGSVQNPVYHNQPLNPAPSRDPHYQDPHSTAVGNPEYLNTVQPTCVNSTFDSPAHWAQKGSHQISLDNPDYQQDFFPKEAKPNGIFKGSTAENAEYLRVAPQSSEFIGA

The next experiment addresses EGFR (D770_N771insNPG) (Homo sapiens (Human), UniProt P00533, INS770NPG). In words: HotSpot radiometric kinase assay, EGFR (D770_N771insNPG). Conditions: 10 μM ATP, read-out: EGFR (Δ770_N771insNPG) IC50. A digest of the protocol: (§1)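 10 μM ATP (33P-labelled, final); 120 min RT; P81 filter capture, 0.75% phosphoric acid washes. Cpd preincubated ~20 min with enzyme/substrate, 20 mM Hepes pH 7.5, 10 mM MgCl2, 1% DMSO. IC50 by curve fit.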

The target in the next experiment is EGFR Δ746-750 mutant (Homo sapiens (Human), UniProt P00533, DEL746-750). In words: HotSpot radiometric kinase assay, EGFR Δ746-750 mutant. Conditions: 10 μM ATP. A digest of the protocol:
as §1

In experiment [1] the target is EGFR Δ746-750/C797S mutant (Homo sapiens (Human), UniProt P00533, C797S/DEL746-750). Kind of experiment: HotSpot radiometric kinase assay, EGFR Δ746-750/C797S mutant. As to conditions: 10 μM ATP. In short, it runs like this: as §1
Chain of EGFR Δ746-750/C797S mutant (P00533 other isoform, or with tags, fused parts or gaps C797S/del 1-668/del 746-750 limits assumed): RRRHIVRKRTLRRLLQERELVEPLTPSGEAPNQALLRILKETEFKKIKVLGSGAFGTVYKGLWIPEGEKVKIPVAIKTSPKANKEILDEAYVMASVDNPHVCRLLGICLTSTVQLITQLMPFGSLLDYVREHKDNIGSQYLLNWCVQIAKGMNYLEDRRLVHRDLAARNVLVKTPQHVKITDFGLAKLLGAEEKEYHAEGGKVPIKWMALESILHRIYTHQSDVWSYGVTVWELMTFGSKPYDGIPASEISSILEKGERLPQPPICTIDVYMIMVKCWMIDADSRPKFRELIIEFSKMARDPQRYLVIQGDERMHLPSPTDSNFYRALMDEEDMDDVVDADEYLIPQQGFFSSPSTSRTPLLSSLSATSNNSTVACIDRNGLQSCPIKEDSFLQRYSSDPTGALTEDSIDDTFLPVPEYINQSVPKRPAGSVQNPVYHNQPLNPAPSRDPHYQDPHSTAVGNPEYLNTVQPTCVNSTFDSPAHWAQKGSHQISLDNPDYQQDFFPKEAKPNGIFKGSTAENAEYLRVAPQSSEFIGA
The target of the next experiment is EGFR L858R mutant (Homo sapiens (Human), UniProt P00533, L858R). Kind of experiment: HotSpot radiometric kinase assay, EGFR L858R mutant. As to conditions: 10 μM ATP. In short, it runs like this: as §1
Chain of EGFR L858R mutant (P00533 25-1210 L858R): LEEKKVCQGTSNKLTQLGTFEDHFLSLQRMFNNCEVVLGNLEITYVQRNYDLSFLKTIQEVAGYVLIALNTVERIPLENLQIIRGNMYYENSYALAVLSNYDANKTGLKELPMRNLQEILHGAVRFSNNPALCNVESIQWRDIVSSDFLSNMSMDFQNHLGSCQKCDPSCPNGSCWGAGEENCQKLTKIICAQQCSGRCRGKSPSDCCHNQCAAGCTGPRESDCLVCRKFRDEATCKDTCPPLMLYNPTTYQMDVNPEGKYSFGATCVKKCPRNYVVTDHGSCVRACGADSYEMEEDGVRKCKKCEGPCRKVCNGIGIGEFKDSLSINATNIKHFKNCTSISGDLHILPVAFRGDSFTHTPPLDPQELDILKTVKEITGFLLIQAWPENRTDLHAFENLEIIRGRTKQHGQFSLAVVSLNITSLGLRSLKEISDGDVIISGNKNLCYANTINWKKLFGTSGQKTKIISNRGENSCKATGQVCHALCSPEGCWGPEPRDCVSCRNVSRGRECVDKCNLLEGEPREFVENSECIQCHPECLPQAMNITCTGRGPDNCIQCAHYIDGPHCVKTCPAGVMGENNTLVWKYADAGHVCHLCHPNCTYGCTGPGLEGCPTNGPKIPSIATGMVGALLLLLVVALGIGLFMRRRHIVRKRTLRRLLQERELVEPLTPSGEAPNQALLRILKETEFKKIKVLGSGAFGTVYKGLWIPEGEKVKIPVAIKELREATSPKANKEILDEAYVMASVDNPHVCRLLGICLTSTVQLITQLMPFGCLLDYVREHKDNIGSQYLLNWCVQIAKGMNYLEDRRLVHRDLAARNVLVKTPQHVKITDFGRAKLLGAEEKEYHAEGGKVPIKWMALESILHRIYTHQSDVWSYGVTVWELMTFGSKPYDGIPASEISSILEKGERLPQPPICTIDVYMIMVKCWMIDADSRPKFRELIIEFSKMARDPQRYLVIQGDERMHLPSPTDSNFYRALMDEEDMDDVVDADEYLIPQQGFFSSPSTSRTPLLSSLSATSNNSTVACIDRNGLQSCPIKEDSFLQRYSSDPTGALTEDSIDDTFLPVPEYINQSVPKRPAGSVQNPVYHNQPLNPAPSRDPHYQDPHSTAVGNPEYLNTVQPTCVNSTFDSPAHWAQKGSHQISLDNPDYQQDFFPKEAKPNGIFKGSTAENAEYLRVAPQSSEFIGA
The target in a further experiment is EGFR L858R/T790M mutant (Homo sapiens (Human), UniProt P00533, L858R/T790M). In words: HotSpot radiometric kinase assay, EGFR L858R/T790M mutant. As to conditions: 10 μM ATP. A digest of the protocol: as §1
Chain of EGFR L858R/T790M mutant (P00533 25-1210 T790M/L858R): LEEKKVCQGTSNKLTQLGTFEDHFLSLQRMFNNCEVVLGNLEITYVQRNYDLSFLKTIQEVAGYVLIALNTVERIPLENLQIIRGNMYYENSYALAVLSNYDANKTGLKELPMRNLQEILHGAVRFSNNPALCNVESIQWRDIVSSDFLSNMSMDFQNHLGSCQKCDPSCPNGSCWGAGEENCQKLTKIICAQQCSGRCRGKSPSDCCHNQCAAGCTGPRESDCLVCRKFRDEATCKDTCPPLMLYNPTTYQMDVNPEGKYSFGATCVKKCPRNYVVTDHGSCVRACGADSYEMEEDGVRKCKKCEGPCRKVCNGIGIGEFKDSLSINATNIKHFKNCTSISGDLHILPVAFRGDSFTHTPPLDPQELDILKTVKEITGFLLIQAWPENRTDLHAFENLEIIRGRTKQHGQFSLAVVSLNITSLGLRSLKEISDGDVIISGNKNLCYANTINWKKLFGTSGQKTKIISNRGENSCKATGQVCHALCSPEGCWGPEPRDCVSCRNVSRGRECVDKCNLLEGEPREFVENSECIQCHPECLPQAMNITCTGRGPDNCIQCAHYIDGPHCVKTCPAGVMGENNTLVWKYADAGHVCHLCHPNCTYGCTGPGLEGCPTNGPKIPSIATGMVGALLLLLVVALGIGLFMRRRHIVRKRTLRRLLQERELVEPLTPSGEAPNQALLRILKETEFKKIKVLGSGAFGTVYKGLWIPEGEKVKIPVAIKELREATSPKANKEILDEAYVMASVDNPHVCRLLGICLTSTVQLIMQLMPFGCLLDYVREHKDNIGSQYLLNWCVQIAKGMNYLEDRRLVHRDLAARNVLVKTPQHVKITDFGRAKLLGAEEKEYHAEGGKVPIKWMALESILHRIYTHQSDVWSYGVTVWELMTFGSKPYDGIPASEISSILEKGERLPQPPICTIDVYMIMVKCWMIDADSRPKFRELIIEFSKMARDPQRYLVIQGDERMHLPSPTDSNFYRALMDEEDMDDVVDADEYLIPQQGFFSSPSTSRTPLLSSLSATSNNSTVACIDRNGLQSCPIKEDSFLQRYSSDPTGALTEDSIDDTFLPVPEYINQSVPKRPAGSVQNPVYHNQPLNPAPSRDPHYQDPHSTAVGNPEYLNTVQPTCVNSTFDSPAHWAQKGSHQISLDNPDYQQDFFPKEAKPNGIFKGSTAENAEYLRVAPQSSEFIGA
In experiment [2] the target is EGFR L858R/T790M/C797S mutant (Homo sapiens (Human), UniProt P00533, C797S/L858R/T790M). In words: HotSpot radiometric kinase assay, EGFR L858R/T790M/C797S mutant. As to conditions: 10 μM ATP. A digest of the protocol: as §1

Chain of EGFR (D770_N771insNPG) (P00533 other isoform, or with tags, fused parts or gaps del 1-668/ins NPG behind 770 limits assumed): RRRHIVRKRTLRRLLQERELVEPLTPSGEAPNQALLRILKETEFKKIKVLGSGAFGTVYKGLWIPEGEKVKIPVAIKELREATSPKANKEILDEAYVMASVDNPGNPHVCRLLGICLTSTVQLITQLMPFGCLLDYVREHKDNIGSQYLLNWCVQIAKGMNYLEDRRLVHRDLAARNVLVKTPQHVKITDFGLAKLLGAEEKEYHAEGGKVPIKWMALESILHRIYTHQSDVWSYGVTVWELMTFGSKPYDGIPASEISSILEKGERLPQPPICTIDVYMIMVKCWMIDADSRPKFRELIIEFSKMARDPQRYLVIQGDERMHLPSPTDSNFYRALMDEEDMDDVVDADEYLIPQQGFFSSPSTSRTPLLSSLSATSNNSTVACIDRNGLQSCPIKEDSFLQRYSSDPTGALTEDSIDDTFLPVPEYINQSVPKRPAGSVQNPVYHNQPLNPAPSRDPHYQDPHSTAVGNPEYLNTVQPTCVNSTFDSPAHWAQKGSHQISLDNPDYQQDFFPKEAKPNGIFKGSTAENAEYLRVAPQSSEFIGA

As to `CCOC(=O)Cn1nc(OCC)c2c1CN(CC)C[C@H](C)Oc1c(cnn1C)-c1ccc3[nH]nc(c3c1)/C=C/2` [Example 218, ethyl [(10S,17E)-16-ethoxy-12-ethyl-8,10-dimethyl-2,8,10,11,12,13-hexahydro-14H-3,5-ethenotripyrazolo[3,4-f:3′,4′-j:4″,3″-n][1,4]oxazacyclopentadecin-14-yl]acetate], the IC50 against EGFR WT came out at 119 nM; at EGFR (D770_N771insNPG), 161 nM; at EGFR Δ746-750 mutant, 8.48 nM; in experiment [1] it was 16.6 nM; on EGFR L858R mutant it was 28.8 nM; against EGFR L858R/T790M mutant, 1.99 nM. This compound also displayed an IC50 in experiment [2] of 2.04 nM.
For the compound `C[C@H]1CN(C)Cc2c(c(O[C@H]3CCN(S(C)(=O)=O)C3)nn2CCO)/C=C/c2n[nH]c3ccc(cc23)-c2cnn(C)c2O1` [Example 182, 2-[(10S,17E)-16-{[(3S)-1-(methanesulfonyl)pyrrolidin-3-yl]oxy}-8,10,12-trimethyl-2,8,10,11,12,13-hexahydro-14H-3,5-ethenotripyrazolo[3,4-f:3′,4′-j:4″,3″- n][1,4]oxazacyclopentadecin-14-yl]ethan-1-ol], the concentration for half-maximal inhibition (IC50) at EGFR WT was 139 nM; at EGFR (D770_N771insNPG), 300 nM; against EGFR Δ746-750 mutant, 24 nM; in experiment [1] it was 6.6 nM; against EGFR L858R mutant, 24.7 nM; against EGFR L858R/T790M mutant, 0.54 nM. Further, the IC50 in experiment [2] was found to be 1.37 nM.
Turning to `COCc1nn(C)c2c1/C=C/c1n[nH]c3ccc(cc13)-c1cnn(C)c1OCCCO2` [Ex. 11, (17E)-16-(methoxymethyl)-8,14-dimethyl-2,11,12,14-tetrahydro-8H,10H-3,5-etheno[1,5]dioxacyclopentadecino[10,11-c:15,14-c′:6,7-c″]tripyrazole], the IC50 is over 1000 nM on EGFR WT; over 1000 nM at EGFR (D770_N771insNPG); 850 nM on EGFR Δ746-750 mutant; 798 nM in experiment [1]; 1580 nM against EGFR L858R mutant; 153 nM at EGFR L858R/T790M mutant. In experiment [2], the concentration for half-maximal inhibition (IC50) was 218 nM.
As to `Cc1nn([C@H]2COCC[C@@H]2O)c2c1/C=C/c1n[nH]c3ccc(cc13)-c1cnn(C)c1OCCCO2` (racemic) [Example 86, (rac)-1,5-anhydro-2,4-dideoxy-2-[(17E)-8,16-dimethyl-2,8,11,12-tetrahydro-10H,14H-3,5-etheno[1,5]dioxacyclopentadecino[10,11-c:15,14-c′:6,7-c″ ]tripyrazol-14-yl]-L-threo-pentitol], the concentration for half-maximal inhibition (IC50) (against EGFR WT; at EGFR (D770_N771insNPG); on EGFR Δ746-750 mutant; in experiment [1]; against EGFR L858R mutant; at EGFR L858R/T790M mutant) was over 1000 nM each time. Moreover, the concentration for half-maximal inhibition (IC50) in experiment [2] is over 1000 nM.
`C[C@H]1CN(C)Cc2c(c(OC3CCN(S(C)(=O)=O)CC3)nn2CCO)/C=C/c2n[nH]c3ccc(cc23)-c2cnn(C)c2O1` [Example 175, 2-[(10S,17E)-16-{[1-(methanesulfonyl)piperidin-4-yl]oxy}-8,10,12-trimethyl-2,8,10,11,12,13-hexahydro-14H-3,5-ethenotripyrazolo[3,4-f:3′,4′-j:4″,3″- n][1,4]oxazacyclopentadecin-14-yl]ethan-1-ol]: the IC50 is 176 nM on EGFR WT; 713 nM at EGFR (D770_N771insNPG); 67.8 nM against EGFR Δ746-750 mutant; 8.97 nM in experiment [1]; 42.6 nM on EGFR L858R mutant; 2.06 nM on EGFR L858R/T790M mutant. In experiment [2], this compound returned a half-maximal inhibitory concentration (IC50) of 3.39 nM.
Regarding `Cc1nn(C)c2c1-c1ccc3[nH]nc(c3c1)/C=C/c1c(OC(C)C)nn(CCO)c1CN(C(C)C)C[C@@H](C)O2` [Example 202, 2-{(10R,17E)-6,8,10-trimethyl-12-(propan-2-yl)-16-[(propan-2-yl)oxy]-2,8,10,11,12,13-hexahydro-14H-3,5-ethenotripyrazolo[3,4-f:3′,4′-j:4″,3″-n][1,4]oxazacyclopentadecin-14-yl}ethan-1-ol], the IC50 came to 179 nM against EGFR WT; 423 nM on EGFR (D770_N771insNPG); 45 nM on EGFR Δ746-750 mutant; 20.7 nM in experiment [1]; 98.8 nM against EGFR L858R mutant; 3.38 nM on EGFR L858R/T790M mutant. Further, in experiment [2], inhibition was half-maximal at 2 nM (IC50).
For `Cc1c2c(nn1CCN1CCOCC1)CN(C)C[C@H](C)Oc1c(cnn1C)-c1ccc3[nH]nc(c3c1)/C=C/2` [Example 93, (10S,17E)-8,10,12,16-tetramethyl-15-[2-(morpholin-4-yl)ethyl]-2,10,11,12,13,15-hexahydro-8H-3,5-ethenotripyrazolo[3,4-f:3′,4′-j:4″,3″- n][1,4]oxazacyclopentadecine], the IC50 is 69.2 nM at EGFR WT; 138 nM at EGFR (D770_N771insNPG); 49.2 nM at EGFR Δ746-750 mutant; 16.7 nM in experiment [1]; 11.4 nM at EGFR L858R mutant; 0.86 nM against EGFR L858R/T790M mutant. The same compound yielded an IC50 in experiment [2] of 5.02 nM.
Regarding `Cc1nn(C[C@@H](C)O)c2c1/C=C/c1n[nH]c3ccc(cc13)-c1cnn(C)c1O[C@@H](C)CN(C)C2` [Example 127, (2R)-1-[(10S,17E)-8,10,12,16-tetramethyl-2,8,10,11,12,13-hexahydro-14H-3,5-ethenotripyrazolo[3,4-f:3′,4′-j:4″,3″-n][1,4]oxazacyclopentadecin-14-yl]propan-2-ol], the IC50 against EGFR WT came to 11.1 nM; on EGFR (D770_N771insNPG), 25.6 nM; at EGFR Δ746-750 mutant, 2.82 nM; in experiment [1], 0.85 nM; against EGFR L858R mutant, 1.81 nM; against EGFR L858R/T790M mutant, 0.15 nM. The concentration for half-maximal inhibition (IC50) in experiment [2] came out at 0.43 nM.
`Cc1nn([C@H]2CCN(C)C[C@@H]2O)c2c1/C=C/c1n[nH]c3ccc(cc13)-c1cnn(C)c1OCCCO2` (racemic) [Example 82, (rac)-4-[(17E)-8,16-dimethyl-2,8,11,12-tetrahydro-10H,14H-3,5-etheno[1,5]dioxacyclopentadecino[10,11-c:15,14-c′:6,7-c′]tripyrazol-14-yl]-1-methylpiperidin-3-ol]: the half-inhibitory concentration (IC50) at EGFR WT was 67.8 nM; at EGFR (D770_N771insNPG), 56.7 nM; against EGFR Δ746-750 mutant, 27.9 nM; in experiment [1], 29.8 nM; at EGFR L858R mutant, 15.3 nM; against EGFR L858R/T790M mutant, 1.24 nM. Further, inhibition in experiment [2] was half-maximal at 5.77 nM (IC50).
Regarding `C[C@H]1CN(C)Cc2c(c(OC3CN(S(C)(=O)=O)C3)nn2CCO)/C=C/c2n[nH]c3ccc(cc23)-c2cnn(C)c2O1` [Example 221, 2-[(10S,17E)-16-{[1-(methanesulfonyl)azetidin-3-yl]oxy}-8,10,12-trimethyl-2,8,10,11,12,13-hexahydro-14H-3,5-ethenotripyrazolo[3,4-f:3′,4′-j:4″,3″-n][1,4]oxazacyclopentadecin-14-yl]ethan-1-ol], the concentration for half-maximal inhibition (IC50) on EGFR WT worked out at 4.14 nM; on EGFR (D770_N771insNPG) it was 10.3 nM; on EGFR Δ746-750 mutant, 0.55 nM; in experiment [1], 0.35 nM; at EGFR L858R mutant, 0.97 nM; against EGFR L858R/T790M mutant, 0.21 nM. This compound came in with an IC50 in experiment [2] of 0.14 nM.
With `Cc1c2c(nn1CCN1CCN(C)CC1)CN(C)C[C@H](C)Oc1c(cnn1C)-c1ccc3[nH]nc(c3c1)/C=C/2` [Example 90, (10S,17E)-8,10,12,16-tetramethyl-15-[2-(4-methylpiperazin-1-yl)ethyl]-2,10,11,12,13,15-hexahydro-8H-3,5-ethenotripyrazolo[3,4-f:3′,4′-j:4″,3″-n][1,4]oxazacyclopentadecine], the IC50 is 17.1 nM at EGFR WT; 81.8 nM on EGFR (D770_N771insNPG); 11.6 nM at EGFR Δ746-750 mutant; 4.65 nM in experiment [1]; 1.02 nM on EGFR L858R mutant; 0.06 nM against EGFR L858R/T790M mutant. Further, 0.81 nM corresponded to half-maximal inhibition in experiment [2] (IC50).
Take `CCOc1nn(CCO)c2c1/C=C/c1n[nH]c3ccc(cc13)-c1cnn(C)c1O[C@@H]1CN(C)C[C@H]1N(C)C2` (single isomer, unassigned) [Ex. 271]: the IC50 against EGFR WT was over 1000 nM; on EGFR (D770_N771insNPG), over 1000 nM; on EGFR Δ746-750 mutant it was 472 nM; in experiment [1] it was 422 nM; at EGFR L858R mutant, 1580 nM; against EGFR L858R/T790M mutant, 56.7 nM. In addition, in experiment [2], the IC50 was determined as 31.6 nM.
Consider `Cc1nn([C@H]2C[C@@H](N(C)CCN(C)C)C2)c2c1/C=C/c1n[nH]c3ccc(cc13)-c1cnn(C)c1OCCCO2` [Example 103, N^1-{(1s,3s)-3-[(17E)-8,16-dimethyl-2,8,11,12-tetrahydro-10H,14H-3,5-etheno[1,5]dioxacyclopentadecino[10,11-c:15,14-c′:6,7-c″]tripyrazol-14-yl]cyclobutyl}-N^1,N^2,N^2-trimethylethane-1,2-diamine], for which the IC50 was found to be 358 nM at EGFR WT; 344 nM on EGFR (D770_N771insNPG); 105 nM against EGFR Δ746-750 mutant; 171 nM in experiment [1]; 103 nM against EGFR L858R mutant; 11.5 nM at EGFR L858R/T790M mutant. The midpoint of inhibition in experiment [2], the IC50, lay at 40.4 nM.

As usually defined, the IC50 is the concentration that inhibits the measured activity by half.
